# Values quoted from earlier work as cited in patent US20090203685A1, “ANTI-PROLIFERATIVE COMPOUNDS FROM A 3-ARYL-COUMARINE OR 3-ARYL-QUINOLIN-2-ONE AND USES THEREOF” (EOS (ETHICAL ONCOLOGY SCIENCE) S.P.A., priority 2006, published 2009).
# Assays:
# [1] = in vivo; cited from earlier work
# [2] = system: melanoma, breast, cervical, prostate, colon tumor cells; settings: cited from earlier work
# [3] = system: small cell lung carcinoma (SCLC) and lymphoid cells; settings: cited from earlier work
# SCLC tumor = settings: in vivo; cited from earlier work
SMILES,MTD (maximal tolerated dose) [1],"Growth of melanoma, breast, cervical, prostate, colon tumor cells [2]",Apoptosis of SCLC and lymphoid cells [3],SCLC tumor regression in mouse models (SCLC tumor)
COC1=CC(c2cc3ccccc3[nH]2)=N/C1=C\c1[nH]c(C)cc1C [GX15-070],approx 16 mg/kg,inhibit growth,,
CN(C)CC[C@H](CSc1ccccc1)Nc1ccc(S(=O)(=O)NC(=O)c2ccc(N3CCN(Cc4ccccc4-c4ccc(Cl)cc4)CC3)cc2)cc1[N+](=O)[O-] [ABT-737],,,induces apoptosis,induces SCLC tumor regression
